These results are taken from ChEMBL document CHEMBL1150679, “Genipatriol, a new cycloartane triterpene from Genipa spruceana” (J Nat Prod, 2003).

Activity calls are given as the source filed them. The rule behind the calls is not given here.

The assay relates to Nakaseomyces glabratus. Description: Antimicrobial activity against Candida glabrata assessed as reversal of azole resistance after 24 to 48 hrs. The class given is functional, organism-based.

On to `C/C(=C/CC[C@@H](C)[C@H]1CC[C@@]2(C)[C@@H]3CC[C@H]4C(C)(C)[C@@H](O)[C@H](O)C[C@@]45C[C@@]35CC[C@]12C)CO`, for which the result was inactive. With `C[C@H]1[C@H](C)CC[C@]2(C(=O)O)CC[C@]3(C)C(=CC[C@@H]4[C@@]5(C)CC[C@H](O)C(C)(C)[C@@H]5CC[C@]43C)[C@H]12` the entry was “inactive”.
